# Assay results published in patent US9695155B2, “Herbicidal substituted pyrimidinyloxy benzene compounds” (E. I. DU PONT DE NEMOURS AND COMPANY, priority 2013, dated 2017).
# Experiments:
# giant foxtail [1] = test: Test A preemergence; assay type: in vivo, Setaria faberii; details: 0 to 100 scale where 0 is no effect and 100 is complete control; for Plant response rating, Foxtail, Giant: 125 g ai/ha; for Foxtail, Giant plant response rating: 500 g ai/ha
# How it was run: (§1)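 Compounds in non-phytotoxic solvent with surfactant applied as soil spray preemergence, or postemergence to plants 2-10 cm at one- to two-leaf stage, in loam/sand. After approximately 10 days in greenhouse, injury rated visually versus untreated controls, 0 (no effect) to 100 (complete control).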
# soybean = test: Test C postemergence; assay type: in vivo, Glycine max; details: for Plant response rating (0 to 100), Soybean: 0 is no effect, 100 is complete control; for Soybean plant response rating: 31 g ai/ha, 13 to 15 days; for Soybean plant response rating / Plant response rating, Soybean: scale 0 to 100 (0 no effect, 100 complete control)
# How it was run: (§2)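 Greenhouse herbicide screen. Pre: seeded loam/sand, sprayed at planting. Post: 1–4 leaf plants (2–18 cm) in peat-based mix. Formulation: solvent mixture + surfactant, non-phytotoxic. Readout: visual % control vs untreated, 13–15 d; dash = not tested.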
# rice = test: Test B flooded paddy test; assay type: in vivo, Oryza sativa; details: Flood, 250 g ai/ha; 0 to 100 scale where 0 is no effect and 100 is complete control
# How it was run: (§3)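 Visual ratings on a 0 to 100 scale, where 100 means complete control, compared treated plants with controls after 13 to 15 days in a greenhouse. Treatment went into paddy water 3 cm deep over the soil, applied to plants at the 2-leaf stage.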
# large (Lg) crabgrass = test: Test A postemergence; assay type: in vivo, Digitaria sanguinalis; details: 0 to 100 scale where 0 is no effect and 100 is complete control; for Crabgrass, Large plant response rating: 125 g ai/ha; for Plant response rating, Crabgrass, Large: 500 g ai/ha
# How it was run: as §1
# Italian ryegrass = test: Test C postemergence; assay type: in vivo, Lolium multiflorum; details: for Plant response rating (0 to 100), Ryegrass, Italian: 0 is no effect, 100 is complete control; for Ryegrass, Italian plant response rating: 31 g ai/ha, 13 to 15 days; for Ryegrass, Italian plant response rating / Plant response rating, Ryegrass, Italian: scale 0 to 100 (0 no effect, 100 complete control)
# How it was run: as §2
# waterhemp = test: Test C postemergence; assay type: in vivo, Amaranthus rudis; details: for Plant response rating (0 to 100), Waterhemp: 0 is no effect, 100 is complete control; for Waterhemp plant response rating: 31 g ai/ha, 13 to 15 days; for Waterhemp plant response rating / Plant response rating, Waterhemp: scale 0 to 100 (0 no effect, 100 complete control)
# How it was run: as §2
# chickweed = test: Test C postemergence; assay type: in vivo, Stellaria media; details: for Plant response rating (0 to 100), Chickweed: 0 is no effect, 100 is complete control; for Chickweed plant response rating: 31 g ai/ha, 13 to 15 days; for Chickweed plant response rating / Plant response rating, Chickweed: scale 0 to 100 (0 no effect, 100 complete control)
# How it was run: as §2
# corn = test: Test A preemergence; assay type: in vivo, Zea mays; details: 0 to 100 scale where 0 is no effect and 100 is complete control; for Plant response rating, Corn: 125 g ai/ha; for Corn plant response rating: 500 g ai/ha
# How it was run: as §1
# sedge, umbrella = test: Test B flooded paddy test; assay type: in vivo, Cyperus difformis; details: Flood, 250 g ai/ha; 0 to 100 scale where 0 is no effect and 100 is complete control
# How it was run: as §3
# galium = test: Test C postemergence; assay type: in vivo, Galium aparine; details: for Plant response rating (0 to 100), Galium: 0 is no effect, 100 is complete control; for Galium plant response rating: 31 g ai/ha, 13 to 15 days; for Galium plant response rating / Plant response rating, Galium: scale 0 to 100 (0 no effect, 100 complete control)
# How it was run: as §2
# lambsquarters = test: Test C postemergence; assay type: in vivo, Chenopodium album; details: for Plant response rating (0 to 100), Lambsquarters: 0 is no effect, 100 is complete control; for Lambsquarters plant response rating: 31 g ai/ha, 13 to 15 days; for Lambsquarters plant response rating / Plant response rating, Lambsquarters: scale 0 to 100 (0 no effect, 100 complete control)
# How it was run: as §2
# giant foxtail [2] = test: Test A postemergence; assay type: in vivo, Setaria faberii; details: 0 to 100 scale where 0 is no effect and 100 is complete control; for Foxtail, Giant plant response rating: 125 g ai/ha; for Plant response rating, Foxtail, Giant: 500 g ai/ha
# How it was run: as §1
# wheat = test: Test A preemergence; assay type: in vivo, Triticum aestivum; details: for Wheat plant response rating (0 to 100 scale): 125 g ai/ha; for Wheat plant response rating: 500 g ai/ha, 0 to 100 scale where 0 is no effect and 100 is complete control
# How it was run: as §1
# oilseed rape = test: Test C postemergence; assay type: in vivo, Brassica napus; details: for Plant response rating (0 to 100), Oilseed Rape: 0 is no effect, 100 is complete control; for Oilseed Rape plant response rating: 31 g ai/ha, 13 to 15 days; for Oilseed Rape plant response rating / Plant response rating, Oilseed Rape: scale 0 to 100 (0 no effect, 100 complete control)
# How it was run: as §2
# barnyardgrass = test: Test B flooded paddy test; assay type: in vivo, Echinochloa crus-galli; details: Flood, 250 g ai/ha; 0 to 100 scale where 0 is no effect and 100 is complete control
# How it was run: as §3
# pigweed = test: Test A postemergence; assay type: in vivo, Amaranthus retroflexus; details: 0 to 100 scale where 0 is no effect and 100 is complete control; for Pigweed plant response rating: 125 g ai/ha; for Plant response rating, Pigweed: 500 g ai/ha
# How it was run: as §1
# [3] = 125 g ai/ha, postemergence, visual rating
compound,measurement,setting,value
O=Cc1cccc(Oc2ncc(I)cn2)c1-n1cc(Br)cn1 [Compound 172],"Plant response rating, Foxtail, Giant",giant foxtail [1],0
same,"Foxtail, Giant plant response rating",giant foxtail [1],0
same,"Plant response rating (0 to 100), Soybean","soybean; 8 g ai/ha, postemergence",0
same,"Plant response rating (0 to 100), Soybean","soybean; 16 g ai/ha, postemergence",0
same,Soybean plant response rating,"soybean; postemergence, visual rating",0
same,"Plant response rating, Soybean","soybean; Postemergence, 62 g ai/ha",5
same,"Plant response rating, Rice",rice,0
same,"Crabgrass, Large plant response rating",large (Lg) crabgrass,20
same,"Plant response rating, Crabgrass, Large",large (Lg) crabgrass,30
same,"Plant response rating (0 to 100), Ryegrass, Italian","Italian ryegrass; 8 g ai/ha, postemergence",0
same,"Plant response rating (0 to 100), Ryegrass, Italian","Italian ryegrass; 16 g ai/ha, postemergence",0
same,"Ryegrass, Italian plant response rating","Italian ryegrass; postemergence, visual rating",0
same,"Plant response rating, Ryegrass, Italian","Italian ryegrass; Postemergence, 62 g ai/ha",5
same,"Plant response rating (0 to 100), Waterhemp","waterhemp; 8 g ai/ha, postemergence",0
same,"Plant response rating (0 to 100), Waterhemp","waterhemp; 16 g ai/ha, postemergence",5
same,Waterhemp plant response rating,"waterhemp; postemergence, visual rating",5
same,"Plant response rating, Waterhemp","waterhemp; Postemergence, 62 g ai/ha",5
same,"Plant response rating (0 to 100), Chickweed","chickweed; 8 g ai/ha, postemergence",0
same,"Plant response rating (0 to 100), Chickweed","chickweed; 16 g ai/ha, postemergence",0
same,Chickweed plant response rating,"chickweed; postemergence, visual rating",50
same,"Plant response rating, Chickweed","chickweed; Postemergence, 62 g ai/ha",70
same,"Plant response rating, Corn",corn,0
same,Corn plant response rating,corn,0
same,"Plant response rating, Sedge, Umbrella","sedge, umbrella",0
same,"Plant response rating (0 to 100), Galium","galium; 8 g ai/ha, postemergence",0
same,"Plant response rating (0 to 100), Galium","galium; 16 g ai/ha, postemergence",0
same,Galium plant response rating,"galium; postemergence, visual rating",0
same,"Plant response rating, Galium","galium; Postemergence, 62 g ai/ha",10
same,"Plant response rating (0 to 100), Lambsquarters","lambsquarters; 8 g ai/ha, postemergence",0
same,"Plant response rating (0 to 100), Lambsquarters","lambsquarters; 16 g ai/ha, postemergence",0
same,Lambsquarters plant response rating,"lambsquarters; postemergence, visual rating",0
same,"Plant response rating, Lambsquarters","lambsquarters; Postemergence, 62 g ai/ha",0
same,"Foxtail, Giant plant response rating",giant foxtail [2],0
same,"Plant response rating, Foxtail, Giant",giant foxtail [2],20
same,Wheat plant response rating (0 to 100 scale),wheat,0
same,Wheat plant response rating,wheat,0
same,"Plant response rating (0 to 100), Oilseed Rape","oilseed rape; 8 g ai/ha, postemergence",0
same,"Plant response rating (0 to 100), Oilseed Rape","oilseed rape; 16 g ai/ha, postemergence",0
same,Oilseed Rape plant response rating,"oilseed rape; postemergence, visual rating",0
same,"Plant response rating, Oilseed Rape","oilseed rape; Postemergence, 62 g ai/ha",0
same,"Plant response rating, Barnyardgrass",barnyardgrass,0
same,Pigweed plant response rating,pigweed,100
same,"Plant response rating, Pigweed",pigweed,100
Fc1cccc(Oc2ncc(Cl)cn2)c1-n1cc(Cl)cn1 [Compound 177],"Plant response rating, Foxtail, Giant",giant foxtail [1],100
same,"Foxtail, Giant plant response rating",giant foxtail [1],100
same,"Plant response rating (0 to 100), Soybean","soybean; 16 g ai/ha, postemergence",45
same,Soybean plant response rating,"soybean; postemergence, visual rating",65
same,"Plant response rating, Soybean",soybean; [3],95
same,"Plant response rating, Soybean","soybean; Postemergence, 62 g ai/ha",85
same,"Plant response rating, Rice",rice,15
same,"Crabgrass, Large plant response rating",large (Lg) crabgrass,80
same,"Plant response rating, Crabgrass, Large",large (Lg) crabgrass,100
same,"Plant response rating (0 to 100), Ryegrass, Italian","Italian ryegrass; 16 g ai/ha, postemergence",0
same,"Ryegrass, Italian plant response rating","Italian ryegrass; postemergence, visual rating",0
same,"Plant response rating, Ryegrass, Italian",Italian ryegrass; [3],0
same,"Plant response rating, Ryegrass, Italian","Italian ryegrass; Postemergence, 62 g ai/ha",0
same,"Plant response rating (0 to 100), Waterhemp","waterhemp; 16 g ai/ha, postemergence",70
same,Waterhemp plant response rating,"waterhemp; postemergence, visual rating",75
same,"Plant response rating, Waterhemp",waterhemp; [3],100
same,"Plant response rating, Waterhemp","waterhemp; Postemergence, 62 g ai/ha",95
same,"Plant response rating (0 to 100), Chickweed","chickweed; 16 g ai/ha, postemergence",50
same,Chickweed plant response rating,"chickweed; postemergence, visual rating",50
same,"Plant response rating, Chickweed",chickweed; [3],85
same,"Plant response rating, Chickweed","chickweed; Postemergence, 62 g ai/ha",55
same,"Plant response rating, Corn",corn,0
same,Corn plant response rating,corn,50
same,"Plant response rating, Sedge, Umbrella","sedge, umbrella",100
same,"Plant response rating (0 to 100), Galium","galium; 16 g ai/ha, postemergence",60
same,Galium plant response rating,"galium; postemergence, visual rating",50
same,"Plant response rating, Galium",galium; [3],98
same,"Plant response rating, Galium","galium; Postemergence, 62 g ai/ha",85
same,"Plant response rating (0 to 100), Lambsquarters","lambsquarters; 16 g ai/ha, postemergence",60
same,Lambsquarters plant response rating,"lambsquarters; postemergence, visual rating",65
same,"Plant response rating, Lambsquarters",lambsquarters; [3],90
same,"Plant response rating, Lambsquarters","lambsquarters; Postemergence, 62 g ai/ha",75
same,"Foxtail, Giant plant response rating",giant foxtail [2],80
same,"Plant response rating, Foxtail, Giant",giant foxtail [2],100
same,Wheat plant response rating (0 to 100 scale),wheat,0
same,Wheat plant response rating,wheat,50
same,"Plant response rating (0 to 100), Oilseed Rape","oilseed rape; 16 g ai/ha, postemergence",60
same,Oilseed Rape plant response rating,"oilseed rape; postemergence, visual rating",80
same,"Plant response rating, Oilseed Rape",oilseed rape; [3],90
same,"Plant response rating, Oilseed Rape","oilseed rape; Postemergence, 62 g ai/ha",90
same,"Plant response rating, Barnyardgrass",barnyardgrass,30
same,Pigweed plant response rating,pigweed,100
same,"Plant response rating, Pigweed",pigweed,100
